One may read the IC50 as the concentration at which inhibition is half-maximal. A low value points to greater potency in that assay.

“Also recorded” adds a separate entry of the source. Counter-ions that a name gives are not always drawn. Residues, ends and D or L forms follow the SMILES beside them.

Data on five molecules can be found in article PMC13147323, “EGFR-Targeted and MMP-Activated Membranolytic Peptides Kill Cancer Cells Specifically In Vitro and Reduce Tumor Growth In Vivo” (Molecular Pharmaceutics, 2026).

The test system of one series is HB2 cells. The format is cell-based, human. As to conditions: 24 h. The method, then:
(§1) MDA-MB-468, MDA-MB-231, BT-474, AU-565, HB2, and MCF-10A cells were procured from American Type Culture Collection (ATCC) and validated for lack of mycoplasma contamination (MycoAlert; Lonza, Basel, Switzerland) and identity (short tandem repeat profiling; Source Bioscience, Nottingham, UK). Cells (except MCF-10A) were cultured in Dulbecco’s modified Eagle medium (DMEM) supplemented with 10% (v/v) fetal calf serum (FCS) and 100 units/mL penicillin–streptomycin (Thermo Scientific; Waltham, MA, USA). MCF-10A was cultured in DMEM supplemented with 5% horse serum, 0.1 μg/mL cholera toxin, 0.5 μg/mL hydrocortisone, 0.02 μg/mL epidermal growth factor, and 100 units/mL penicillin–streptomycin (Thermo Scientific, Waltham, MA, USA). Cells were grown at 37 °C in a humidified incubator with 5% CO2. Cells were maintained and experiments were performed under conditions ensuring cell densities that supported exponential growth.
(§2) Cells were seeded in 96-well plates at 1 × 10^4 cells/well in complete growth media and incubated for 18 h. Cells were then treated with peptides (0–250 μM) for up to 24 h. Cells were then incubated with 0.5 mg/mL MTT dissolved in PBS for 3 h. Formazan crystals were dissolved using […] of isopropanol and absorbance was measured at 570 nm on a microplate spectrophotometer (Biotech Instruments, USA). For spheroids assays, MDA-MB-468 or HB2 cells (1000 cells/well) were seeded in 250 μL of DMEM supplemented with 10% FCS and 2.5% Matrigel (Corning, New York, USA) in low-adherent, round-bottom 96-well plates (Corning, New York, USA). The plates were centrifuged at 360g for 10 min and subsequently incubated for 48 h to allow spheroid formation. MDA-MB-468 or HB2 spheroids were then treated with peptides at the IC50 doses determined for MDA-MB-468 cells for 24 h. Cellular viability within spheroids was assessed by staining with Hoechst 33342 (5 μg/mL) for 30 min, followed by propidium iodide (PI) (1.5 μg/mL) for 10 min. Red fluorescence indicated nonviable cells stained with PI, whereas blue fluorescence represented both viable and nonviable cells stained with Hoechst 33342. The survival of spheroids was determined by calculating ratios of blue/red fluorescence using ImageJ software.
(§3) A panel of human breast epithelial cell lines was established, including two lines from a nontransformed origin (MCF-10A; HB2) and four cancer lines (BT-474; AU-565; MDA-MB-231; MDA-MB-468). Cells were treated with different doses of MP1 or the modified peptides. Survival was assessed relative to untreated using MTT assays (Figures and S2) and IC50 doses were determined for each peptide in each cell line.

For series [1], the system named is MDA-MB-468 cells. The format is cell-based, human. As to conditions: 24 h. The procedure: as §1, §2, §3
Another series relates to red blood cells. Nature of the series: Ex vivo hemolysis assay. The format is cell-based. As to conditions: mouse RBCs 1:50 in PBS, 1 h, 37 °C, absorbance 540 nm. The procedure: Blood was collected from five 10-week-old male C57BL/6 mice via cardiac puncture following cervical dislocation, using pediatric blood collection tubes containing K3 EDTA (Greiner; Slušovice, Czechia). Blood was centrifuged (500g; 5 min; 4 °C) and plasma was removed. Red blood cells (RBCs) were resuspended to their original volume using 150 mM NaCl. RBCs were repeatedly washed and diluted to 1:50 in PBS. For a positive control, 1% (v/v) Triton X-100 was used (100% lysis), while cells incubated in PBS served as a negative control (0% lysis). 200 μL of RBCs in triplicate was treated with peptides and incubated on an orbital shaker (100 rpm; 1 h; 37 °C). Samples were centrifuged (500g; 5 min) and supernatants, containing lysed RBCs, were collected. Hemolysis was quantified by measuring absorbance at 540 nm.
Our next aim was to assess whether our various peptides had potential as anticancer therapeutics using an in vivo model. To our knowledge, MP1 or MP1-derived peptides have not previously been used experimentally in vivo, therefore we first performed an in vitro hemolysis assay to aid selection of peptides that could be suitable for intravenous delivery. Red blood cells were isolated from mouse blood and treated with three different doses of MP1 wildtype or our targeted peptides (EGFR and EGFR-MMP versions of both MP1 and D2K) and hemolysis was measured (Figure A).

The next series relates to MCF-10A cells. The format is cell-based, human. As to conditions: 24 h. The method, then: as §1, §2, §3
Another series relates to MDA-MB-231 cells. The format is cell-based, human. The note with it: 24 h. The method, then:
as §1, §2, §3

The test system of another series is BT-474 cells. The format is cell-based, human. The note with it: 24 h. The procedure:
as §1, §2, §3

In another series the test system is AU-565 cells. The format is cell-based, human. As to conditions: 24 h. The procedure: as §1, §2, §3
The test system of series [2] is MDA-MB-468 cells. Description: MTT survival with or without MMP-2 inhibitor, MDA-MB-468. The format is cell-based, human. The note with it: MDA-MB-468, MTT, 24 h; 20 μM EGFR-MP1, 30 μM EGFR-MMP-MP1 or 2 μM chlorhexidine dihydrochloride alone. The method, then:
Cells were seeded in 6-well plates at 3 × 10^5 in complete medium and allowed to grow for 48 h. 500 μL of cell media from each cell line was collected and centrifuged at 5000 rpm for 15 min at 4 °C. Supernatants were collected and 50 μL of each was added in 3 replicate wells of a monoclonal mouse antihuman MMP-2 antibody precoated 96-well ELISA plate (Human Total MMP-2 kit; BioLegend, USA). It was then mixed with the respective assay buffers as per the kit instruction. The plate was then sealed and incubated at room temperature (2 h). The supernatant sample was then discarded and the wells were washed with assay buffer several times. Next, 100 μL of Human Total MMP-2 Detection Antibody solution was added into the wells and incubated (1 h). 100 μL of Avidin-HRP solution was then added for 1 h, and finally, after washing, 100 μL of substrate solution was added. Absorbance was measured at 450 nm (Biotech Instruments, USA). The final MMP-2 concentration was calculated against a standard curve. […]
We were also interested to test formally whether the efficacy of EGFR-MMP-MP1 was dependent on MMP-2 activity. Therefore, we treated MDA-MB-468 cells with EGFR-MMP-MP1 or with EGFR-MP1, in the presence or absence of the MMP-2 inhibitor chlorhexidine dihydrochloride, and assessed cell survival relative to untreated (Figure C,D).

For `CC[C@H](C)[C@H](N)C(=O)N[C@@H](CCCCN)C(=O)N[C@@H](Cc1c[nH]c2ccccc12)C(=O)N[C@@H](CCCCN)C(=O)N[C@@H](CCCCN)C(=O)N[C@@H](CC(C)C)C(=O)N[C@@H](CC(C)C)C(=O)N[C@@H](CC(=O)O)C(=O)N[C@@H](C)C(=O)N[C@@H](C)C(=O)N[C@@H](CCCCN)C(=O)N[C@@H](CCC(N)=O)C(=O)N[C@H](C(=O)N[C@@H](CC(C)C)C(=O)NCC(=O)NCC(=O)N[C@@H](Cc1ccc(O)cc1)C(=O)N[C@@H](Cc1c[nH]cn1)C(=O)N[C@@H](Cc1c[nH]c2ccccc12)C(=O)N[C@@H](Cc1ccc(O)cc1)C(=O)NCC(=O)N[C@@H](Cc1ccc(O)cc1)C(=O)N[C@H](C(=O)N1CCC[C@H]1C(=O)N[C@@H](CCC(=O)O)C(=O)N[C@@H](CC(N)=O)C(=O)N[C@H](C(=O)N[C@H](C(=O)O)[C@@H](C)CC)C(C)C)[C@@H](C)O)[C@@H](C)CC` [EGFR-D2K] (H-IKWKKLLDAAKQILGGYHWYGYTPENVI-OH), the IC50 in the series on HB2 cells amounted to 50.5 µM; with MDA-MB-468 cells [1], 27.2 µM.

On to `CC[C@H](C)[C@H](N)C(=O)N[C@@H](CCCCN)C(=O)N[C@@H](Cc1c[nH]c2ccccc12)C(=O)N[C@@H](CCCCN)C(=O)N[C@@H](CCCCN)C(=O)N[C@@H](CC(C)C)C(=O)N[C@@H](CC(C)C)C(=O)N[C@@H](CC(=O)O)C(=O)N[C@@H](C)C(=O)N[C@@H](C)C(=O)N[C@@H](CCCCN)C(=O)N[C@@H](CCC(N)=O)C(=O)N[C@H](C(=O)N[C@@H](CC(C)C)C(=O)NCC(=O)N1CCC[C@H]1C(=O)N[C@@H](CC(C)C)C(=O)NCC(=O)N[C@H](C(=O)N[C@@H](C)C(=O)NCC(=O)N[C@@H](CCC(N)=O)C(=O)N[C@@H](Cc1ccc(O)cc1)C(=O)N[C@@H](Cc1c[nH]cn1)C(=O)N[C@@H](Cc1c[nH]c2ccccc12)C(=O)N[C@@H](Cc1ccc(O)cc1)C(=O)NCC(=O)N[C@@H](Cc1ccc(O)cc1)C(=O)N[C@H](C(=O)N1CCC[C@H]1C(=O)N[C@@H](CCC(=O)O)C(=O)N[C@@H](CC(N)=O)C(=O)N[C@H](C(=O)N[C@H](C(=O)O)[C@@H](C)CC)C(C)C)[C@@H](C)O)[C@@H](C)CC)[C@@H](C)CC` [EGFR-MMP-D2K] (H-IKWKKLLDAAKQILGPLGIAGQYHWYGYTPENVI-OH), for which the hemolysis in the series on red blood cells (50 μM peptide, 1% Triton X-100 = 100%) is reported as 5.9%. Besides, the IC50 with HB2 cells stood at 79.8 µM; in the series with MDA-MB-468 cells [1] it was 32.1 µM.

In the case of `CC[C@H](C)[C@H](N)C(=O)N[C@@H](CC(=O)O)C(=O)N[C@@H](Cc1c[nH]c2ccccc12)C(=O)N[C@@H](CCCCN)C(=O)N[C@@H](CCCCN)C(=O)N[C@@H](CC(C)C)C(=O)N[C@@H](CC(C)C)C(=O)N[C@@H](CC(=O)O)C(=O)N[C@@H](C)C(=O)N[C@@H](C)C(=O)N[C@@H](CCCCN)C(=O)N[C@@H](CCC(N)=O)C(=O)N[C@H](C(=O)N[C@@H](CC(C)C)C(=O)NCC(=O)NCC(=O)N[C@@H](Cc1ccc(O)cc1)C(=O)N[C@@H](Cc1c[nH]cn1)C(=O)N[C@@H](Cc1c[nH]c2ccccc12)C(=O)N[C@@H](Cc1ccc(O)cc1)C(=O)NCC(=O)N[C@@H](Cc1ccc(O)cc1)C(=O)N[C@H](C(=O)N1CCC[C@H]1C(=O)N[C@@H](CCC(=O)O)C(=O)N[C@@H](CC(N)=O)C(=O)N[C@H](C(=O)N[C@H](C(=O)O)[C@@H](C)CC)C(C)C)[C@@H](C)O)[C@@H](C)CC` [EGFR-MP1] (H-IDWKKLLDAAKQILGGYHWYGYTPENVI-OH), the IC50 in the series on HB2 cells was determined as 71.4 µM; in the series with MCF-10A cells, 93.4 µM; in the series with MDA-MB-231 cells it was 39.3 µM; in the series with MDA-MB-468 cells [1], 39.6 µM; in the series with BT-474 cells, 98.3 µM; in the series on AU-565 cells, 91.4 µM.

Regarding `CC[C@H](C)[C@H](N)C(=O)N[C@@H](CC(=O)O)C(=O)N[C@@H](Cc1c[nH]c2ccccc12)C(=O)N[C@@H](CCCCN)C(=O)N[C@@H](CCCCN)C(=O)N[C@@H](CC(C)C)C(=O)N[C@@H](CC(C)C)C(=O)N[C@@H](CC(=O)O)C(=O)N[C@@H](C)C(=O)N[C@@H](C)C(=O)N[C@@H](CCCCN)C(=O)N[C@@H](CCC(N)=O)C(=O)N[C@H](C(=O)N[C@@H](CC(C)C)C(=O)O)[C@@H](C)CC` [MP1, reference compound] (H-IDWKKLLDAAKQIL-OH), in the series on red blood cells (three doses), the “hemolysis (in words)” value is on record as “unacceptably high levels of hemolysis at all doses; also recorded: unacceptably high hemolytic activity”. Also, the IC50 in the series on HB2 cells came to 31.5 µM; in the series with MCF-10A cells it was 111 µM; with MDA-MB-231 cells, 35 µM; with MDA-MB-468 cells [1], 23.4 µM; in the series on BT-474 cells, 50.6 µM; in the series on AU-565 cells it was 18.7 µM.

In the case of `[H]/N=C(\N/C(=N/[H])NCCCCCCNC(=N)NC(=N)Nc1ccc(Cl)cc1)Nc1ccc(Cl)cc1` [chlorhexidine dihydrochloride], the “cell survival relative to untreated, single agent” value with MDA-MB-468 cells [2] was “small and nonsignificant decrease”.
